# Reference: paper PMC7802075 (ACS Infectious Diseases, 2020)
# Read-outs that look alike come from different tables or passages of the source. Where a SMILES comes first, the peptide text is derived from it. The star is where a group is joined. For = O=C*
# Target: T1, LmjIPCS (inositol phosphorylceramide synthase from L. major) (Leishmania major, UniProt E9AFX2)
# T1 sequence (E9AFX2 1-338): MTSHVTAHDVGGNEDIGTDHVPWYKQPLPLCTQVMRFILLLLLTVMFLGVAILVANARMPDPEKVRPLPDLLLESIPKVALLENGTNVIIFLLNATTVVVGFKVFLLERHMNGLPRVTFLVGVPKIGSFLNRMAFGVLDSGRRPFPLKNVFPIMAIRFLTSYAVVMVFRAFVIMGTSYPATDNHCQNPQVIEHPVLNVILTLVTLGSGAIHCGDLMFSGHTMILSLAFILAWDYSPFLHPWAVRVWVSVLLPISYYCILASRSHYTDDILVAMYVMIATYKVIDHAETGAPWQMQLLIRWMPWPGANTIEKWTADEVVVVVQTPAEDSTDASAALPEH
# Test: biochemical
# Assay type: biochemical
# Parameters: inhibition: dose or concentration left out as unconfirmed
# Settings: for inhibition at 20000 µM: read-out: 20mM inhibition LmjIPCS; for inhibition: read-out: inhibition LmjIPCS
# [1] = NINDS set screen, single concentration printed as 20mM
# [2] = screening of NINDS set, sheet Screen 1
compound,measurement,setting,value
CC[C@H]1OC(=O)C[C@@H](O)[C@H](C)[C@@H](O[C@@H]2O[C@H](C)[C@@H](O[C@H]3C[C@@](C)(O)[C@@H](O)[C@H](C)O3)[C@H](N(C)C)[C@H]2O)[C@@H](CC=O)C[C@@H](C)C(=O)/C=C/C(C)=C/[C@@H]1CO[C@@H]1O[C@H](C)[C@@H](O)[C@@H](OC)[C@H]1OC [TYLOSIN],inhibition at 20000 µM,,5%
COc1ccc(C[C@H](N)C(=O)N[C@H]2[C@@H](O)[C@H](n3cnc4c(N(C)C)ncnc43)O[C@@H]2CO)cc1 [PUROMYCIN],inhibition,,20%
CC(C)Cc1ccc(C(C)C(=O)O)cc1 (stereo not drawn) [IBUPROFEN],inhibition,,2.58%
[N-]=[N+]=CC(=O)OC[C@H](N)C(=O)O [AZASERINE],inhibition at 20000 µM,,14%
CC(C)NCC(O)COc1ccc(CC(N)=O)cc1 (stereo not drawn) [ATENOLOL],inhibition at 20000 µM,,-6%
CC(C)NCC(O)c1ccc2ccccc2c1 (stereo not drawn) [PRONETALOL],20mM inhibition LmjIPCS,[1],60%
COc1c(N2C[C@@H]3CCCN[C@@H]3C2)c(F)cc2c(=O)c(C(=O)O)cn(C3CC3)c12 [MOXIFLOXACIN],inhibition at 20000 µM,,16%
NS(=O)(=O)c1cc2c(cc1C(F)(F)F)NCNS2(=O)=O [HYDROFLUMETHIAZIDE],inhibition at 20000 µM,,9%
CC1(C)O[C@@H]2[C@@H](CO[C@@]3(COS(N)(=O)=O)OC(C)(C)O[C@@H]23)O1 [TOPIRAMATE],inhibition,NINDS set screen,16%
NCCCCC(=O)O [5-AMINOPENTANOIC ACID],inhibition,,-2.68%
Nc1ccc(S(=O)(=O)Nc2ccccn2)cc1 [SULFAPYRIDINE],inhibition at 20000 µM,,-1.38%
Cc1nnc(SCC2=C(C(=O)O)N3C(=O)[C@@H](NC(=O)Cn4cnnn4)[C@H]3SC2)s1 [CEFAZOLIN],20mM inhibition LmjIPCS,,35%
COc1cc2nc(N(C)CCCNC(=O)C3CCCO3)nc(N)c2cc1OC (stereo not drawn) [ALFLUZOCIN],20mM inhibition LmjIPCS,,8%
O=c1cc(-c2ccccc2)oc2cc(O)c(O)c(O)c12 [BAICALEIN],inhibition,,32%
CCc1cc(C(N)=S)ccn1 [ETHIONAMIDE],inhibition at 20000 µM,,-5.39%
C#C[C@]1(O)CC[C@H]2[C@@H]3CCC4=C(CCC(=O)C4)[C@H]3CC[C@@]21C [NORETHYNODREL],inhibition at 20000 µM,,21%
S=C=NCc1ccccc1 [BENZYL ISOTHIOCYANATE],inhibition at 20000 µM,,6%
c1ccc(CC2=NCCN2)cc1 [TOLAZOLINE],inhibition at 20000 µM,,2.77%
CC1=CC(=O)c2ccccc2C1=O [MENADIONE],20mM inhibition LmjIPCS,,43%
Cc1cc(O)cc(C)c1Cl [CHLOROXYLENOL],20mM inhibition LmjIPCS,,53%
CCCc1nn(C)c2c(=O)[nH]c(-c3cc(S(=O)(=O)N4CCN(C)CC4)ccc3OCC)nc12,20mM inhibition LmjIPCS,,50%
C[N+](C)(C)CCOC(N)=O [CARBACHOL],20mM inhibition LmjIPCS,[1],57%
COc1ccc(/C=C/c2cc(O)cc(O[C@@H]3O[C@H](CO)[C@@H](O)[C@H](O)[C@H]3O)c2)cc1O [RHAPONTIN],inhibition,[2],3%
CN[C@@H]1[C@@H](O)[C@@H](O[C@@H]2[C@@H](O)[C@H](O[C@H]3O[C@H]([C@@H](C)O)[C@@H](O)[C@H](O)[C@H]3N)[C@@H](N)C[C@H]2N)OC[C@]1(C)O [GENETICIN],inhibition at 20000 µM,,13%
Clc1cccc(Cl)c1N=C1NCCN1 [CLONIDINE],20mM inhibition LmjIPCS,,43%
Cc1c(OCC(F)(F)F)ccnc1C[S+]([O-])c1nc2ccccc2[nH]1 (stereo not drawn) [LANSOPRAZOLE],20mM inhibition LmjIPCS,"NINDS set screen, compound at 20mM (so in the source)",23%
COc1ccc2cc1Oc1ccc(cc1)C[C@H]1c3cc(c(OC)cc3CCN1C)Oc1c(OC)c(OC)cc3c1[C@H](C2)N(C)CC3 [TETRANDRINE],20mM inhibition LmjIPCS,,65%
O=C1NCC2(CCN(CCc3ccccc3)CC2)O1 [FENSPIRIDE],20mM inhibition LmjIPCS,[1],47%
Cc1onc(-c2ccccc2)c1C(=O)N[C@@H]1C(=O)N2[C@@H]1SC(C)(C)[C@@H]2C(=O)O [OXACILLIN],inhibition at 20000 µM,,16%
Nc1c(Br)cc(Br)cc1CN[C@H]1CC[C@H](O)CC1 [AMBROXOL],20mM inhibition LmjIPCS,,53%
CCC(Cc1c(I)cc(I)c(N)c1I)C(=O)O (stereo not drawn) [IOPANIC ACID],20mM inhibition LmjIPCS,,7.62%
COc1c(C)c2c(c(O)c1C/C=C(\C)CCC(=O)O)C(=O)OC2 [MYCOPHENOLIC ACID],inhibition,,4%
COLISTIMETHATE,20mM inhibition LmjIPCS,[1],56%
CC1(C)S[C@@H]2[C@H](NC(=O)Cc3ccccc3)C(=O)N2[C@H]1C(=O)O [BENZYL PENICILLIN],inhibition,,21%
CC(=O)OCC(COC(C)=O)OC(C)=O [TRIACETIN],inhibition,NINDS set screen,29%
CC(=O)OCC1=C(C(=O)O)N2C(=O)[C@@H](NC(=O)Cc3cccs3)[C@H]2SC1 [CEPHALOTHIN],20mM inhibition LmjIPCS,,55%
CCOC(=O)[C@H](CCc1ccccc1)N[C@@H](C)C(=O)N1Cc2ccccc2C[C@H]1C(=O)O,inhibition at 20000 µM,,5.45%
Oc1cccc2cccnc12 [OXYQUINOLINE],inhibition at 20000 µM,,14%
"O=c1[nH]c2cc(Cl)c(Cl)cc2[nH]c1=O [2,3-DIHYDROXY-6,7-DICHLOROQUINOXALINE]",inhibition,,4%
CC1=C(/C=C/C(C)=C/C=C/C(C)=C/CO)C(C)(C)CCC1 [RETINOL],inhibition,NINDS set screen,21%
NC(Cc1c[nH]cn1)C(=O)Nc1ccc2ccccc2c1 (stereo not drawn),20mM inhibition LmjIPCS,[1],47%
CC1(C)S[C@@H]2[C@H](NC(=O)[C@H](N)c3ccccc3)C(=O)N2[C@H]1C(=O)O [AMPICILLIN],inhibition,,29%
CC1(C)S[C@@H]2[C@H](NC(=O)COc3ccccc3)C(=O)N2[C@H]1C(=O)O [PENICILLIN V],inhibition at 20000 µM,,3.31%
CS(=O)(=O)c1ccc(C2=C(c3ccccc3)C(=O)OC2)cc1 [ROFECOXIB],inhibition,NINDS set screen,-2%
COc1ccc2c(c1)[nH]c1c(C)nccc12 [HARMINE],inhibition at 20000 µM,,32%
CO[C@@H]1C[C@@H](C[C@H]2CC[C@H](C)[C@H]([C@@H](C)C(=O)O)O2)O[C@]2(O[C@](C)([C@H]3CC[C@@](C)([C@@H]4O[C@@H]([C@H]5O[C@@](O)(CO)[C@H](C)C[C@@H]5C)C[C@@H]4C)O3)C[C@H]2C)[C@@H]1C [NIGERICIN],inhibition at 20000 µM,,-7.41%
CC(COc1ccccc1)NC(C)C(O)c1ccc(O)cc1 (stereo not drawn) [ISOXSUPRINE],inhibition at 20000 µM,,32%
COc1cnc(NS(=O)(=O)c2ccc(N)cc2)nc1,inhibition at 20000 µM,,21%
Nc1nc(=O)c2nc(CNc3ccc(C(=O)N[C@@H](CCC(=O)O)C(=O)O)cc3)cnc2[nH]1 [FOLIC ACID],inhibition,,5.56%
COc1ccc(C2C(=O)c3ccccc3C2=O)cc1 [ANISINDIONE],inhibition,[2],10%
CC(=O)Oc1c(C)c(C)c2c(c1C)CCC(C)(CCC[C@H](C)CCC[C@H](C)CCCC(C)C)O2 (stereo partly drawn) [alpha-TOCOPHERYL ACETATE],inhibition at 20000 µM,,-0.425%
O=C(OCC(O)CO)c1ccccc1Nc1ccnc2cc(Cl)ccc12 (stereo not drawn) [GLAFENINE],inhibition at 20000 µM,,-16%
NC(=O)c1ccc[n+]([C@@H]2O[C@H](COP(=O)([O-])OP(=O)(O)OC[C@H]3O[C@@H](n4cnc5c(N)ncnc54)[C@H](OP(=O)(O)O)[C@@H]3O)[C@@H](O)[C@H]2O)c1,inhibition at 20000 µM,,7%
CC(C)(Sc1cc(C(C)(C)C)c(O)c(C(C)(C)C)c1)Sc1cc(C(C)(C)C)c(O)c(C(C)(C)C)c1 [PROBUCOL],inhibition at 20000 µM,,25%
C[C@H]1O[C@@H](O[C@H]2[C@@H](O)C[C@H](O[C@H]3[C@@H](O)C[C@H](O[C@H]4CC[C@@]5(C)[C@H](CC[C@@H]6[C@@H]5CC[C@]5(C)[C@@H](C7=CC(=O)OC7)CC[C@]65O)C4)O[C@@H]3C)O[C@@H]2C)C[C@H](O)[C@@H]1O [DIGITOXIN],inhibition at 20000 µM,,5.28%
COc1ccc2[nH]cc(CCN)c2c1 [MEXAMINE],20mM inhibition LmjIPCS,,25%
C=C1[C@@H]2CC[C@H]3[C@]4(C)C[C@H](O[C@@H]5O[C@H](CO)[C@@H](OS(=O)(=O)O)[C@H](OS(=O)(=O)O)[C@H]5OC(=O)CC(C)C)C[C@@H](C(=O)O)[C@H]4CC[C@]3(C2)[C@H]1O [ATRACTYLOSIDE],inhibition at 20000 µM,,18%
O=C(O)c1cc2cc(Cl)ccc2[nH]1 [5-CHLOROINDOLE-2-CARBOXYLIC ACID],inhibition,[2],9%
CO[C@@]1(NC(=O)C(C(=O)O)c2ccc(O)cc2)C(=O)N2C(C(=O)O)=C(CSc3nnnn3C)CO[C@@H]21 (stereo partly drawn) [MOXALACTAM],inhibition at 20000 µM,,10%
CN1Cc2c(N)cccc2C(c2ccccc2)C1 (stereo not drawn) [NOMIFENSINE],inhibition,,5%
CC(C)=CC1C(C(=O)O)C1(C)C (stereo not drawn) [CHRYSANTHEMIC ACID],20mM inhibition LmjIPCS,[1],69%
[H]/N=C(/N)N[C@H]1[C@H](O)[C@@H](O)[C@H](O[C@@H]2O[C@@H](C)[C@](O)(C=O)[C@H]2O[C@@H]2O[C@@H](CO)[C@H](O)[C@@H](O)[C@@H]2NC)[C@@H](N/C(N)=N\[H])[C@@H]1O [STREPTOMYCIN],inhibition,,-0.116%
O=C1C[C@@H](c2ccc(O)cc2)Oc2cc(O)cc(O)c21 [NARINGENIN],inhibition,,17%
CC(=O)N[C@@H](Cc1c[nH]c2ccccc12)C(N)=O [ACETYLTRYPTOPHANAMIDE],inhibition,[2],1.65%
CCN(CC)CC(=O)Nc1c(C)cccc1C [LIDOCAINE],inhibition at 20000 µM,,2.47%
CC(C)=CCC/C(C)=C\CO [NEROL],inhibition,,33%
C[N+]1(CCCCC[N+]2(C)CCCC2)CCCC1 [PENTOLINIUM],inhibition,[2],11%
CCOC(=O)C(Cc1ccc(O)cc1)NC(C)=O (stereo not drawn) [ACETYL TYROSINE ETHYL ESTER],inhibition,[2],3%
Nc1nc(/C(=C/CC(=O)O)C(=O)N[C@@H]2C(=O)N3C(C(=O)O)=CCS[C@H]23)cs1 [CEFTIBUTEN],inhibition at 20000 µM,,18%
O=C(O)c1cc([N+](=O)[O-])ccc1NCCCc1ccccc1 [5-NITRO-2-PHENYLPROPYLAMINOBENZOIC ACID],20mM inhibition LmjIPCS,,15%
CN1C(C(=O)Nc2ccccn2)=C(O)c2sccc2S1(=O)=O [TENOXICAM],inhibition,,7.55%
CSCC[C@H](NC=O)C(=O)N[C@@H](Cc1ccccc1)C(=O)O [N-FORMYLMETHIONYLPHENYLALANINE] (For-Met-Phe-OH),20mM inhibition LmjIPCS,"single concentration 20mM as printed, screening of NINDS set, sheet Screen 1",5.35%
